Data taken from patent US20120046308A1, “NOVEL ALPHA-PHENOXYBENZENEACETIC ACID DERIVATIVE AND PHARMACEUTICAL PREPARATION COMPRISING SAME” (KOWA COMPANY, LTD., priority 2009, published 2012).

How the values were obtained:
human PPARγ2 = target: T1, human PPARγ2 (Homo sapiens, UniProt P37231); assay: PPARγ activation activity, Gal4-PPARγ2 LBD luciferase transfection assay using COS7 cells; assay type: cell-based; conditions: for EC50: COS7 cells, 16 hours, luciferase activity relative to rosiglitazone = 100%, read-out: EC50; for Emax: COS-7, 16 h, maximum activity strength relative to the maximum activity of rosiglitazone, read-out: % MAX vs Rosiglitazone
T1 construct: the amino acids 182 to 505 of human PPARγ2; expressed in transfected cells; host or cells: COS7 cells (African green monkey kidney)
T1 sequence (P37231 182-505): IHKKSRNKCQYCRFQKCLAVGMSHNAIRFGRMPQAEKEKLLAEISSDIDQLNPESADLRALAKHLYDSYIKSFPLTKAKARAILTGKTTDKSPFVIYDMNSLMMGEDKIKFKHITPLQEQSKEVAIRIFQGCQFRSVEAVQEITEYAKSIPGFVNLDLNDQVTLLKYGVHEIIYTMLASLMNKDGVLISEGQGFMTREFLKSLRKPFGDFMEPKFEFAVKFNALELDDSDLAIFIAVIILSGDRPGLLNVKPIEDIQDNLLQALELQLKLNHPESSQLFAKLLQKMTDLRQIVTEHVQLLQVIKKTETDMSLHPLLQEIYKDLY
Description: The agonistic activity of the compounds of the invention on PPARγ was measured based on the transfection assay using COS7 cells (DS Pharma Biomedical Co., Ltd., Osaka, Japan), which are the cell line derived from the kidney of the African green monkey. COS7 cells were cultured under 5% CO2 concentration, and DMEM medium containing 10% fetal bovine serum, glutamic acid, and antibiotics was used as a medium.
As an expression vector, a chimera in which DNA binding domain of Gal4, which is a yeast transcription factor, and ligand binding domain of human PPARγ2 are fused, i.e., a fused product between the amino acids 1 to 147 of Gal4 transcription factor and the amino acids 182 to 505 of human PPARγ2, was used. Furthermore, as a reporter vector, a firefly luciferase containing five copies of Gal4 recognition sequence in the promoter region was used. Plasmid transfection to the cells was performed according to a method which uses jetPEI (trade name, manufactured by Funakoshi Co., Ltd., Tokyo, Japan). Furthermore, β-galactosidase expression vector was employed as an internal standard.
After the transfection of the cells, the medium was replaced with a DMEM medium (containing 1% serum) added with the compound, and the cells were further cultured for 16 hours. After that, the luciferase activity and β-galactosidase activity in the cell lysis solution were measured.
For the present test, dimethyl sulfoxide (DMSO) was used for dissolution and dilution of the test compounds, and during the cell treatment, the DMSO concentration in DMEM medium (containing 1% serum) was adjusted to 0.1%. As a positive compound, rosiglitazone (trade name, manufactured by ALEXIS Corporation, Switzerland) was used. The luciferase activity (%) of the test compounds (1 to 30 μmol/L) was calculated when the luciferase activity of rosiglitazone (3 to 10 μmol/L) is 100% and the luciferase activity in the absence of the test compound is 0%. The 50% effective concentration of the test compound (EC50, 50% effect concentration) was calculated by using SAS Preclinical Package Ver5.0 (trade name, manufactured by SAS institute Japan Co., Tokyo, Japan), which is a statistical analysis program.

[1] = target: T2, angiotensin II type 1 receptor (Oryctolagus cuniculus, UniProt P34976); assay: Angiotensin II antagonistic activity in isolated rabbit blood vessels (thoracic aorta ring contraction); conditions: angiotensin II (10 nM)-induced contraction
T2 construct: By using a specimen of isolated rabbit blood vessels; from tissue; host or cells: rabbit (New Zealand White) thoracic aorta ring
T2 sequence (P34976 1-359): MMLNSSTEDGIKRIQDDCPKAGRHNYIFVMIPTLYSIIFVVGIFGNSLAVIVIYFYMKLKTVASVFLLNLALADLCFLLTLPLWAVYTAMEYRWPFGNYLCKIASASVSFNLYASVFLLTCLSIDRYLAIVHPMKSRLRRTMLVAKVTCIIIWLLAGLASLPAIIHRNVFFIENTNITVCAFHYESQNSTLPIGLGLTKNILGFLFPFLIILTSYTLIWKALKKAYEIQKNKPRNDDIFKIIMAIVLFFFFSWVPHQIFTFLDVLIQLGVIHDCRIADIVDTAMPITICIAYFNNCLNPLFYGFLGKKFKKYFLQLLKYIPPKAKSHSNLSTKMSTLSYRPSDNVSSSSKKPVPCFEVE
Description: By using a specimen of isolated rabbit blood vessels, antagonistic activity of the compounds of the invention against angiotensin II type 1 receptor was estimated from a dose-response curve of angiotensin II-induced blood vessel contraction.
During the measurement, the inside temperature of the magnus bath was maintained at 37° C. and the bath was continuously ventilated with a sufficient amount of mixed gas (95% O2 and 5% CO2). The angiotensin II-induced contraction was converted into a relative value (%) that is based on the angiotensin II (10 nM)-induced contraction in the absence of the compounds of each example. From the concentration-response curve obtained therefrom, 50% inhibition concentration (IC50 value) was calculated by using SAS Preclinical Package Ver5.0 (trade name, manufactured by SAS institute Japan Co., Tokyo, Japan), which is a statistical analysis program.

CCCc1cc(Cc2c(CCC)nc(C)n(-c3ccccn3)c2=O)cc(CCC)c1OC(C(=O)O)c1ccccc1 (stereo not drawn) [Example 2, 2-[4-[{2-methyl-6-oxo-4-propyl-1-(pyridin-2-yl)-1,6-dihydropyrimidin-5-yl}methyl]-2,6-dipropylphenoxy]-2-phenylacetic acid]
EC50 (human PPARγ2): 3.91 µM
Emax (human PPARγ2): 25.2%

CCCCc1nc(C)n(-c2ncc(OCCCC(N)=O)cn2)c(=O)c1Cc1cc(CCC)c(OC(C(=O)O)c2ccccc2)c(CCC)c1 (stereo not drawn) [Example 23]
IC50 [1]: 0.067 µM

CCCCc1nc(C)n(-c2ccccn2)c(=O)c1Cc1cc(CCC)c(OC(c2nnn[nH]2)c2ccccc2Cl)c(CCC)c1 (stereo not drawn) [Example 11, 6-butyl-5-[4-{(2-chlorophenyl)(1H-tetrazol-5-yl)methoxy}-3,5-dipropylbenzyl]-2-methyl-3-(pyridin-2-yl)pyrimidin-4(3H)-one]
EC50 (human PPARγ2): 2.63 µM

CCCCc1nc(C)n(-c2ncc(OCc3ccccc3)cn2)c(=O)c1Cc1cc(CCC)c(OC(C(=O)O)c2ccccc2)c(CCC)c1 (stereo not drawn) [Example 19, 2-[4-[[1-[5-(benzyloxy)pyrimidin-2-yl]-4-butyl-2-methyl-6-oxo-1,6-dihydropyrimidin-5-yl]methyl]-2,6-dipropylphenoxy]-2-phenylacetic acid]
EC50 (human PPARγ2): 0.65 µM
Emax (human PPARγ2): 49.9%

CCCc1cc(Cc2c(CC)nc(C)n(-c3ccccn3)c2=O)cc(CCC)c1OC(C(=O)O)c1ccccc1 (stereo not drawn) [Example 3]
EC50 (human PPARγ2): 3.52 µM

CCCCc1nc(C)n(-c2ccccn2)c(=O)c1Cc1cc(CCC)c(OC(C(=O)NS(C)(=O)=O)c2ccccc2)c(CCC)c1 (stereo not drawn) [Example 6, 2-[4-[{4-butyl-2-methyl-6-oxo-1-(pyridin-2-yl)-1,6-dihydropyrimidin-5-yl}methyl]-2,6-dipropylphenoxy]-N-(methylsulfonyl)-2-phenyl acetoamide]
EC50 (human PPARγ2): 3.19 µM

CCCCc1nc(C)n(-c2ccccn2)c(=O)c1Cc1cc(CCC)c(OC(C(=O)O)c2ccccc2)c(CCC)c1 (stereo not drawn) [Example 1, 2-[4-[{4-butyl-2-methyl-6-oxo-1-(pyridin-2-yl)-1,6-dihydropyrimidin-5-yl}methyl]-2,6-dipropylphenoxy]-2-phenylacetic acid]
IC50 [1]: 0.53 µM
EC50 (human PPARγ2): 3.07 µM
Emax (human PPARγ2): 32%

CCCCc1nc(C)n(-c2ncc(OCC)cn2)c(=O)c1Cc1cc(CCC)c(OC(C(=O)O)c2ccccc2)c(CCC)c1 (stereo not drawn) [Example 20]
IC50 [1]: 0.115 µM
EC50 (human PPARγ2): 2.59 µM
Emax (human PPARγ2): 58.6%

CCCCc1nc(C)n(-c2ccccn2)c(=O)c1Cc1cc(CCC)c(OC(c2ccccc2)c2nnn[nH]2)c(CCC)c1 (stereo not drawn) [Example 4, 6-butyl-2-methyl-5-[4-{phenyl(1H-tetrazol-5-yl)methoxy}-3,5-dipropylbenzyl]-3-(pyridin-2-yl)pyrimidin-4(3H)-one]
EC50 (human PPARγ2): 1.72 µM

CCCCc1nc(C)n(-c2ccccn2)c(=O)c1Cc1cc(CCC)c(OC(C(=O)O)c2ccccc2OC)c(CCC)c1 (stereo not drawn) [Example 10, 2-[4-[{4-butyl-2-methyl-6-oxo-1-(pyridin-2-yl)-1,6-dihydropyrimidin-5-yl}methyl]-2,6-dipropylphenoxy]-2-(2-methoxyphenyl)acetic acid]
EC50 (human PPARγ2): 3.29 µM
Emax (human PPARγ2): 25.6%

CCCCc1nc(C)n(-c2ncc(OC)cn2)c(=O)c1Cc1cc(CCC)c(OC(C(=O)O)c2ccc(Cl)cc2)c(CCC)c1 (stereo not drawn) [Example 18, 2-[4-[{4-butyl-1-(5-methoxypyrimidin-2-yl)-2-methyl-6-oxo-1,6-dihydropyrimidin-5-yl}methyl]-2,6-dipropylphenoxy]-2-(4-chlorophenyl)acetic acid]
EC50 (human PPARγ2): 1.4 µM
Emax (human PPARγ2): 49.1%

CCCCc1nc(C)nc(OCCOC)c1Cc1cc(CCC)c(OC(C(=O)O)c2ccccc2)c(CCC)c1 (stereo not drawn) [Example 32, 2-[4-[{4-butyl-6-(2-methoxyethoxy)-2-methylpyrimidin-5-yl}methyl]-2,6-dipropylphenoxy]-2-phenylacetic acid]
EC50 (human PPARγ2): 2.4 µM

CCCCc1nc(C)n(-c2ccc(OCC)cc2)c(=O)c1Cc1cc(CCC)c(OC(C(=O)O)c2ccccc2)c(CCC)c1 (stereo not drawn) [Example 13]
EC50 (human PPARγ2): 0.48 µM
Emax (human PPARγ2): 42.9%

CCCCc1nc(C)n(-c2ncc(OCCSC)cn2)c(=O)c1Cc1cc(CCC)c(OC(C(=O)O)c2ccccc2)c(CCC)c1 (stereo not drawn) [Example 24, 2-[4-[[4-butyl-2-methyl-1-[5-{2-(methylthio)ethoxy}pyrimidin-2-yl]-6-oxo-1,6-dihydropyrimidin-5-yl]methyl]-2,6-dipropylphenoxy]-2-phenylacetic acid]
EC50 (human PPARγ2): 1.34 µM
Emax (human PPARγ2): 39.8%

CCCCc1nc(C)n(-c2ccccn2)c(=O)c1Cc1cc(CCC)c(OC(C(=O)O)c2cccc(Cl)c2)c(CCC)c1 (stereo not drawn) [Example 8, 2-[4-[{4-butyl-2-methyl-6-oxo-1-(pyridin-2-yl)-1,6-dihydropyrimidin-5-yl}methyl]-2,6-dipropylphenoxy]-2-(3-chlorophenyl)acetic acid]
EC50 (human PPARγ2): 2.02 µM
Emax (human PPARγ2): 41.4%

CCCCc1nc(C)n(-c2ncc(OC)cn2)c(=O)c1Cc1cc(CCC)c(OC(C(=O)O)c2ccccc2)c(CCC)c1 (single isomer, unassigned; (+)) [Example 17, (+)-2-[4-[{4-butyl-1-(5-methoxypyrimidin-2-yl)-2-methyl-6-oxo-1,6-dihydropyrimidin-5-yl}methyl]-2,6-dipropylphenoxy]-2-phenylacetic acid]
EC50 (human PPARγ2): 3.71 µM

CCCCc1nc(CCc2ccc(CC)cn2)[nH]c(=O)c1Cc1cc(CCC)c(OC(C(=O)O)c2ccccc2)c(CCC)c1 (stereo not drawn) [Example 31]
EC50 (human PPARγ2): 1.21 µM

CCCCc1nc(C)n(-c2ncc(OCC[S+](C)[O-])cn2)c(=O)c1Cc1cc(CCC)c(OC(C(=O)O)c2ccccc2)c(CCC)c1 (stereo not drawn) [Example 25]
IC50 [1]: 0.076 µM

CCCCc1nc(C)n(-c2ccccn2)c(=O)c1Cc1cc(CCC)c(OC(C(=O)O)c2ccccc2Cl)c(CCC)c1 (stereo not drawn) [Example 7]
EC50 (human PPARγ2): 3.46 µM
Emax (human PPARγ2): 23.3%

CCCCc1nc(C)n(-c2ncc(O)cn2)c(=O)c1Cc1cc(CCC)c(OC(C(=O)O)c2ccccc2)c(CCC)c1 (stereo not drawn) [Example 27, 2-[4-[{4-butyl-1-(5-hydroxypyrimidin-2-yl)-2-methyl-6-oxo-1,6-dihydropyrimidin-5-yl}methyl]-2,6-dipropylphenoxy]-2-phe nylacetic acid]
IC50 [1]: 0.468 µM

CCCCc1nc(C)n(-c2ccccn2)c(=O)c1Cc1cc(CCC)c(OC(c2ccccc2)c2noc(=O)[nH]2)c(CCC)c1 (stereo not drawn) [Example 5, 3-[[4-[{4-butyl-2-methyl-6-oxo-1-(pyridin-2-yl)-1,6-dihydropyrimidin-5-yl}methyl]-2,6-dipropylphenoxy](phenyl)methyl]-1,2,4-oxadiazol-5(4H)-one]
EC50 (human PPARγ2): 1.19 µM
Emax (human PPARγ2): 35.1%

CCCCc1nc(C)n(-c2ncc(OCCS(C)(=O)=O)cn2)c(=O)c1Cc1cc(CCC)c(OC(C(=O)O)c2ccccc2)c(CCC)c1 (stereo not drawn) [Example 26, 2-[4-[[4-butyl-2-methyl-1-[5-{2-(methylsulfonyl)ethoxy}pyrimidin-2-yl]-6-oxo-1,6-dihydropyrimidin-5-yl]methyl]-2,6-dipropylphenoxy]-2-phenylacetic acid]
IC50 [1]: 0.353 µM

CCCCc1nc(C)nc(OCc2ccccc2)c1Cc1cc(CCC)c(OC(C(=O)O)c2ccccc2)c(CCC)c1 (stereo not drawn) [Example 29]
EC50 (human PPARγ2): 2.49 µM
